This test concerns the target T1, GPR103 C285^6.47A (Homo sapiens, UniProt Q96P65, C285A).
T1 construct: we used human full-length QRFPR-encoding plasmids; expressed in transfected cells; host or cells: HEK293 cells (HEK293A in the flow cytometry section), pCAGGS vector
T1 sequence (Q96P65 1-431 C285A): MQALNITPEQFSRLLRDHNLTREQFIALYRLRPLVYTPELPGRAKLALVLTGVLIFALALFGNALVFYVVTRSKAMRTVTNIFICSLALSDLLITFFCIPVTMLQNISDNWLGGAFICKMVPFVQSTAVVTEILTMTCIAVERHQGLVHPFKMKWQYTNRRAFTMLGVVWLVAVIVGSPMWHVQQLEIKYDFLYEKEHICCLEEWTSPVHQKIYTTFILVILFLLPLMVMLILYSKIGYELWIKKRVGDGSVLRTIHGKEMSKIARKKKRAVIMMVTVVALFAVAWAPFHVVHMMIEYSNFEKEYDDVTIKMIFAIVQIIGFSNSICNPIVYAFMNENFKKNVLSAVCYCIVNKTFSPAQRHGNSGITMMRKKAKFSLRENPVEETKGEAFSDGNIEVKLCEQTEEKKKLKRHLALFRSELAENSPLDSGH
Nature of the test: TGFα shedding assay; Exp. level WT (1:20). The test is classed as cell-based.

Read-outs that look alike come from different tables or passages of the source. No end group written: not given here.

For orientation: EC50 means the concentration giving half of the maximal effect. High values mean a need for much substance, low ones an effect from little substance. Regarding TSGPLGNLAEELNGYSRKKGGFSFRF-NH2 [QRFP26], the Emax turned out to be 81.15 % WT (Exp. #1); 80.43 % WT (Exp. #2); 87.98 % WT (Exp. #3); 83.2% (mean, read-out: Emax); 86.7 ± 2% (n = 3, read-out: Emax). Moreover, a half-maximal effect (n = 3) (EC50) was put at 0.0141 µM.

Source of the values: publication PMC11187126, “Structure and dynamics of the pyroglutamylated RF-amide peptide QRFP receptor GPR103” (Nature Communications, 2024).
